pKd: −log10 of the molar value. Ends that are not written are not given here.
Target: T1, trimeric, post-fusion form of sE (dengue envelope protein E, residues 1-395) (Dengue virus type 2, UniProt P12823)
T1 construct: post-fusion form of sE, the fragment of E spanning residues 1-395; purchased Hawaii Biotech (Hawaii Biotechnology Group, Inc., Aiea, Hi.); host or cells: Drosophila melanogaster Schneider 2 cells (pMtt vector, prM-E preprotein processed during secretion)
Assay: fluorescence depolarization binding of stem peptides to sE trimer
Description: FIG. 10 depicts fluorescence depolarization binding data for a peptide corresponding to residues 396-429 (in the “stem” region) of dengue envelope protein (E). FIG. 10A depicts a Kd analysis of the peptide's binding affinity to the trimeric, post-fusion form of E. FIG. 10B depicts a competitive binding analysis with the fluorescent and unlabeled peptide.
FIG. 11 depicts a fluorescence depolarization Kd analysis to measure the affinity between a peptide corresponding to residues 413-447 (in the “stem” region) of dengue envelope protein (E). and the trimeric, post-fusion form of E.
A peptide corresponding to residues 396-429 (in the “stem” region) of dengue envelope protein (E) binds with fairly high affinity and specificity to the trimeric, post-fusion form of sE, the fragment of E spanning residues 1-395, which we crystallized first in the pre-fusion form and then in the post-fusion form. We determined the dissociation constant (Kd) of the peptide from sE from fluorescence depolarization measurements using a fluorescently labeled version of the peptide. The Kd is around 6 μM. This indicates a fairly strong binding. FIG. 10 depicts the fluorescence depolarization results. The Kd is approximately equal to the concentration of sE at which the depolarization (in mP) reaches its half-maximal value (see FIG. 10A). […]

**Q.** How did the “competitive binding of fluorescent and unlabeled peptide” value (fluorescence depolarization, FIG. 10B, shows that binding is specific to one site of sE) turn out when `CC[C@H](C)[C@H](NC(=O)[C@H](C)NC(=O)[C@H](CCSC)NC(=O)[C@H](CCCNC(=N)N)NC(=O)[C@H](CCCCN)NC(=O)[C@H](C)NC(=O)CNC(=O)[C@H](CCCNC(=N)N)NC(=O)[C@H](CCSC)NC(=O)[C@@H](NC(=O)[C@@H](NC(=O)[C@H](CCC(=O)O)NC(=O)[C@H](Cc1ccccc1)NC(=O)[C@H](CCSC)NC(=O)[C@H](CCC(N)=O)NC(=O)CNC(=O)[C@@H](NC(=O)[C@H](CO)NC(=O)[C@@H](N)CO)[C@@H](C)CC)[C@@H](C)O)[C@@H](C)O)C(=O)N[C@@H](CC(C)C)C(=O)NCC(=O)N[C@@H](CC(=O)O)C(=O)N[C@H](C(=O)N[C@@H](C)C(=O)N[C@@H](Cc1c[nH]c2ccccc12)C(=O)N[C@@H](CC(=O)O)C(=O)N[C@@H](Cc1ccccc1)C(=O)NCC(=O)N[C@@H](CO)C(=O)N[C@@H](CC(C)C)C(=O)NCC(=O)NCC(=O)N[C@H](C(=O)N[C@@H](Cc1ccccc1)C(=O)O)C(C)C)[C@@H](C)O` [396-429] was run?
**A.** can be competed off of sE with unlabeled peptide

**Q.** With “AILGDTAWDFGSLGGVFTSIGKALHQVFGAIYGAA [413-447]” as the molecule, how does the pKd read?
**A.** ~5.40

From patent US8673552B2, “Druggable regions in the dengue virus envelope glycoprotein and methods of using the same” (Children's Medical Center Corporation, priority 2003, dated 2014)
